The values below come from US7625889B2, “Substituted bis aryl and heteroaryl compounds as selective 5HT2A antagonists” (Aventis Pharmaceuticals Inc., priority 2005, dated 2009).

One test has as its target T1, human 5HT2A receptor (Homo sapiens, UniProt P28223).
T1 construct: expressed in transfected cells
The test is described as follows: Receptor Binding Assay, 5HT2A ([3H]N-methyl spiperone). To be noted: BHK cells expressing human 5HT2A receptor, 2.5 nM [3H]N-methyl spiperone, 37° C. In a few lines:
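Membranes came from BHK cells stably expressing human 5HT2A, induced with sodium butyrate, at 100 μg protein per point. Binding used 2.5 nM [3H]N-methyl spiperone for 30 min at 37 °C in Tris-salt buffer pH 7.7, with 100 μM methylsergide defining nonspecific binding. Filtration binding gave IC50/Ki by one-site competition fits.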

Another test deals with T2, 5HT2A receptor site (Mus musculus, UniProt P35363).
T2 construct: from tissue; host or cells: live male mice (whole animal)
The test is described as follows: Head Twitch Assay (5-MeODMT induced head twitch). The class given is in vivo. To be noted: mouse; sc; dose blocking 5-MeODMT (30 mg/kg i.p.) head twitch in 50% of male mice. The protocol: This Example 177 illustrates the study of efficacy of the compounds of this invention at the 5HT2A receptor site in animal models.
5-MeODMT (5-Methoxy-N,N-dimethyltryptamine) Inhibition: Groups of male mice are administered test compounds at selected doses. At an appropriate interval thereafter, 5-MeODMT (dissolved in 0.5% ascorbic acid) is administered at a dose of 30 mg/kg i.p. Immediately after administration of 5-MeODMT, and continuing for the following 6 min, the number of head twitches for each animal is counted. […] The ED50 is calculated as the dose necessary to block head twitch in 50% of the test animals. All experiments are performed with at least 10 animals per condition.

In test [1] the test system is newborn Sprague Dawley rats. The test can be described thus: Obstructive Sleep Apnea Studies (L-tryptophan plus pargyline). The class given is in vivo, rat. On the procedure: Intraperitoneal application of L-tryptophan (10 mg/kg) and pargyline (50 mg/kg) to anaesthetized newborn rats depresses the amplitude of the inspiratory discharges of the genioglossal muscle and induces obstructive apneas (OA). The following procedure describes how to determine the efficacy of the compounds of this invention when compared with the efficacy of theophylline.
Experiments are carried out on newborn Sprague Dawley rats. The animals are anaesthetized by intraperitoneal injection of low doses of sodium pentobarbitone (7-10 mg/kg), kept lying (dorsal cubitus) on a warming blanket and are spontaneously ventilating.
The electromyogram (EMG) activity of the genioglossal muscles and the diaphragm are recorded with fine insulated wires (bipolar recordings) inserted within the muscles, filtered (100-3,000 Hz), amplified (×5-10,000) and integrated (time constant 50 ms). The rib cage movements are recorded via a captor gently touching the lower ribs and/or the abdominal wall. The air flow changes resulting from the respiratory chest movements are recorded via a facial mask and a highly sensitive pressure recorder. […]
Effects of theophylline pre-treatment on the occurrence of obstructive apneas induced by 1-tryptophan and pargyline injection are measured as follows: Five newborn rats receive theophylline at 10 mg/kg and 5 other animals receive theophylline at 30 mg/kg. […]

T2 sequence (P35363 whole entry): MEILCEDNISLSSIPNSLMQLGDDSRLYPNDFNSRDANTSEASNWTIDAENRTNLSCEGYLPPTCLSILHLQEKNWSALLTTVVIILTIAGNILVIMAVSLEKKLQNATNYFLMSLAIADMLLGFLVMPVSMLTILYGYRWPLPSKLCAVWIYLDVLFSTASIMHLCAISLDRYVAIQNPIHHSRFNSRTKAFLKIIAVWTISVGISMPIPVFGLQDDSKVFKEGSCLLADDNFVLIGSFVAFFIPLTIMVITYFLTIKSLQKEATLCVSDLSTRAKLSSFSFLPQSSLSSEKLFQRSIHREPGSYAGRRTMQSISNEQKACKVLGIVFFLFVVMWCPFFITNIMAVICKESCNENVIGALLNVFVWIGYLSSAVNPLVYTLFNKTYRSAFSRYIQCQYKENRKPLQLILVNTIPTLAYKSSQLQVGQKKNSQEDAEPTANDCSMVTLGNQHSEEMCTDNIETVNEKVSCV
T1 sequence (P28223 whole entry): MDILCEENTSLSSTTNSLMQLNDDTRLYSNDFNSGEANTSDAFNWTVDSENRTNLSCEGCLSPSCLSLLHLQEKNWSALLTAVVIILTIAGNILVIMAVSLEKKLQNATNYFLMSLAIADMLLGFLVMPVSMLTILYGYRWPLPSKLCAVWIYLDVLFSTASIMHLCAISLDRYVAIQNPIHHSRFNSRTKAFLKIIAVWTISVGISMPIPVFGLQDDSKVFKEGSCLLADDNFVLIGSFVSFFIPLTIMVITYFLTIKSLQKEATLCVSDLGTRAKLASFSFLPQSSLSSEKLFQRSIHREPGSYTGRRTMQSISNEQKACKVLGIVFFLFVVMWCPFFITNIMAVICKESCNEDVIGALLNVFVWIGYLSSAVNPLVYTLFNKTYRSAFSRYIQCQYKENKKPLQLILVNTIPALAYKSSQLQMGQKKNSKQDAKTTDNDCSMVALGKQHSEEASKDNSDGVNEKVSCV

One may read the Ki as the equilibrium dissociation constant of an inhibitor or competing ligand from its target. One may read the ED50 as the midpoint of the dose-response relation. A high value points to weaker potency. As to `CC(=O)O.CN1CCN(Cc2cncc(-c3ccc4[nH]c(=O)oc4c3)c2)[C@@H](c2ccc(F)cc2)C1` [Example 98, 6-{5-[2S-(4-Fluoro-phenyl)-4-methyl-piperazin-1-ylmethyl]-pyridin-3-yl}-3H-benzooxazol-2-one acetate], the affinity at human 5HT2A receptor corresponds to a Ki of 1.2 nM. Besides, it took a dose of 0.49 mg/kg to reach the 50% effect level on 5HT2A receptor site (ED50).
The matching figures for `CN(C)CCN(Cc1cc(-c2ccc3[nH]c(=O)oc3c2)ccc1F)C(=O)c1ccc(F)cc1` [Example 104, N-(2-Dimethylamino-ethyl)-4-fluoro-N-[2-fluoro-5-(2-oxo-2,3-dihydro-benzooxazol-6-yl)-benzyl]-benzamide]: 0.31 nM and 6.36 mg/kg.
For `Cn1c(=O)c2[nH]cnc2n(C)c1=O` [theophylline], the “induction of OAs after L-Trp+Prg injection” value in test [1] (theophylline 10 or 30 mg/kg) is recorded as “not prevented”. Moreover, the “depression of amplitude of GG inspiratory discharges by L-Trp+Prg injection” value in test [1] (theophylline pre-treatment 10 mg/kg or 30 mg/kg) was “not prevented”.
